The values that follow come from patent publication US9464075B2 (priority 2008, dated 2016).

Where two headings read alike, the source gives them in different places.

Usually inhibition stands for the drop in the measured response relative to a control, in per cent. By Kd is commonly meant the concentration at which binding is half-saturated. The term IC50 denotes the midpoint of a concentration-inhibition curve. The low end stands for higher potency, the high end for lower potency.

One test has as its target AM2 (Influenza A virus, UniProt P0DOF5). Put plainly: cell-based. As to conditions: read-out: AM2 % inhibition at 100 μM.
For test [1], the target named is A/M2 channels (Influenza virus A/Udorn/72 A/M2 protein) (Influenza A virus, UniProt P0DOF5). Put plainly: cell-based. Conditions: for activity at 100 µM: read-out: AM2 channel activity after 100 μM compound inhibition.
Another test concerns the target A/M2TM (22-46) (Influenza A virus, UniProt P0DOF5). The test can be described thus: biochemical. It is filed as binding.

AM2, sequence (P0DOF5 whole entry): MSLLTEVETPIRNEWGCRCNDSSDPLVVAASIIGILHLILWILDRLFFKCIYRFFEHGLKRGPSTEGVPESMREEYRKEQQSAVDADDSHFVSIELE
A/M2 channels (Influenza virus A/Udorn/72 A/M2 protein), sequence (P0DOF5 whole entry, looked up): as the sequence (P0DOF5 whole entry) above
A/M2TM (22-46), sequence (P0DOF5 22-46 limits assumed): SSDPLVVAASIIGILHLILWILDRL

For the molecule `CCC1(CC)CCc2nc(N)sc2C1` [Compound 32, 6,6-Diethyl-4,5,6,7-tetrahydro-benzothiazol-2-ylamine], the inhibition at 100 µM on AM2 is 32%.
Take `c1nc(NC2CCC3(CCCCC3)CC2)n[nH]1` [Compound 11, Spiro[5.5]undec-3-yl-(1H-[1,2,4]triazol-3-yl)-amine]: the activity at 100 µM in test [1] came out at 25%.
With `c1nc(CNCCNC2CCC3(CCCCC3)CC2)c[nH]1` [Compound 14, N-(1H-Imidazol-4-ylmethyl)-N′-spiro[5.5]undec-3-yl-ethane-1,2-diamine], in test [1], the activity at 100 µM is 91%.
For the molecule `OC1(c2cnc[nH]2)CCC2(CCCCC2)CC1` [Compound 15], the activity at 100 µM in test [1] amounted to 40%.
Take `NN1CCC2(CCCCC2)CC1` [Compound 29, 3-Aza-spiro[5.5]undec-3-yl-ammonium chloride]: the inhibition at 100 µM on AM2 worked out at 86%.
On to `C1CCC2(CC1)CCN(C1=NCCN1)CC2` [BL-1743, 3-(4,5-Dihydro-1H-imidazol-2-yl)-3-aza-spiro[5.5]undecane, reference compound], for which the Kd on A/M2TM (22-46) was 194 µM. In addition, in test [1], half-maximal inhibition (IC50) required 45.3 ± 3.92 µM and the activity at 100 µM is 25%.
Turning to `Cl.NNC1CCC2(CCCCC2)CC1` [Compound 31, N′-Spiro[5.5]undec-3-yl-hydrazinium chloride], the inhibition at 100 µM at AM2 is 78.8%.
On to `C1CCC2(CC1)CCNCC2` [Compound 20, 3-Aza-spiro[5.5]undecane, reference compound], for which the Kd at A/M2TM (22-46) (read-out: Kd) was 12.9 µM. Besides, in test [1], the IC50 is 0.92 ± 0.11 µM and the activity at 100 µM was found to be 5%.
As to `NC1CSC2(CCCCCC2)SC1` [Compound 34, 1,5-Dithia-spiro[5.6]dodec-3-yl-ammonium chloride], the inhibition at 100 µM at AM2 was determined as 84.1%.
Same read-out and setting: in the case of `N=C(N)NC1CCC2(CCCCC2)CC1` [Compound 35] it was 92%; in that of `C1CCC2(CC1)CCCNCC2` [Compound 30, 9-Azonia-spiro[5.6]dodecane chloride], 94%.
Consider `NCCNC1CCC2(CCCCC2)CC1` [Compound 12, N^1-Spiro[5.5]undec-3-yl-ethane-1,2-diamine], for which, in test [1], the activity at 100 µM amounted to 100%.
On the same count and under the same terms, the result for `NC12CC3CC(CC(C3)C1)C2` [Amantadine, reference compound] reads 6%.
Same read-out and setting: in the case of `OC(c1c[nH]cn1)C1CCC2(CCCCC2)CC1` (stereo not shown) [Compound 18] it was 30%.
As for `NN1C(=O)CC2(CCCCC2)CC1=O` [Compound 28, 3-Amino-3-aza-spiro[5.5]undecane-2,4-dione], the inhibition at 100 µM at AM2 was 29%.
Same read-out and setting: in the case of `Cl.NC1CSC2(CCCCC2)SC1` [Compound 33, 1,5-Dithia-spiro[5.5]undec-3-yl-ammonium chloride] it was 84.2%.
Regarding `Cl.NC1CCC2(CCCCC2)CC1` [Compound 8], in test [1], the “AM2 channel activity after 100 μM compound inhibition” value was found to be 11%.
As for `NCCCNC1CCC2(CCCCC2)CC1` [Compound 13, N^1-Spiro[5.5]undec-3-yl-propane-1,3-diamine], the activity at 100 µM in test [1] is 100%.
